Test results published in ChEMBL document CHEMBL1857833, “Screening and optimization of specific chemical series against human African Trypanosomiasis (HAT)”.
≈ marks a conversion by molar mass, not a printed value. Where “and” joins values, the source holds several entries; their conditions need not be identical. Equal entries are not always repeated.

Experiments:
[1] = DNDI: Cytotoxicity against L929 mouse fibroblasts, 72 hour.; assay type: toxicity, cell-based; details: mouse, L929 mouse fibroblasts
[2] = test system: Trypanosoma brucei; assay: DNDI: Inhibition of Human African Trypanosomiasis, SBRI 427, in vitro; assay type: functional, organism-based
[3] = DNDI: Cytotoxicity against L929 mouse fibroblasts, CYTO-SP, 24 hour; assay type: toxicity, cell-based; details: mouse, L929 mouse fibroblasts
[4] = Trypanosoma brucei, SBRI 427, read-out: IC50

Compound	IC50 at 72 h [1] [µg/mL]	IC50 [2, 4] [µg/mL]	IC50 at 24 h [3] [µg/mL]	IC50 [2]
O=c1cc(-c2ccccc2)[nH]c2cc(-c3ccc(F)cc3)nn12	10 (≈ 32.8 µM)	> 5		
CN(C)CCCNc1cc(-c2ccccc2)nc2cc(-c3cccc(F)c3)nn12	2.28 (≈ 5.85 µM)	1.13 (≈ 2.9 µM)		
Cc1cc2[nH]c(-c3ccccc3)cc(=O)n2n1	> 10	> 5		
CC(C)(C)OC(=O)N1CCC(Nc2cc(-c3ccccc3)nc3cc(-c4ccc(F)cc4)nn23)CC1	> 10	> 5		
COc1cc(C)ccc1Oc1nc(C)ccc1/C(=N/O)NCC1CC1			> 50	
CCN(CC)CCCNc1cc(C)nc2cc(-c3cccc(F)c3)nn12	> 10	> 5		
Fc1ccc(Oc2nc(Cl)nc3ccsc23)cc1	> 10	> 5		
CCC(C)Oc1ccc(-c2nc(CNCCCN(C)C)co2)cc1 (stereo unspecified)	> 10	> 5		
Cc1ccc(/C(=N/O)NCC(C)(C)C)c(Oc2ccc3ccccc3c2)n1			34 (≈ 93.5 µM)	
CC1CCC(N/C(=N\O)c2cccnc2Oc2ccc(F)cc2Cl)CC1 (stereo unspecified)			28 (≈ 74.1 µM)	
Fc1ccc(-c2cc3nc(-c4ccccc4)cc(NCCCn4ccnc4)n3n2)cc1	7.66 (≈ 18.6 µM)	4.04 (≈ 9.79 µM)		
C/C(O)=C1\C(=O)NC(COCc2ccccc2)C1=O (stereo unspecified)	> 10	> 5		
CC(C)(C)OC(=O)N1CCN(c2cc(-c3ccccc3)nc3cc(-c4ccc(F)cc4)nn23)CC1	> 10	> 5		
CCC(CC)N/C(=N\O)c1ccc(C)nc1Oc1ccc(C)cc1OC			> 50	
CCO/N=C/c1ccccc1-c1ccccc1		> 5	> 50	
C/C(O)=C1/C(=O)CN(C)C1=O	> 10	> 5		
Fc1cccc(-c2cc3nc(-c4ccccc4)cc(NCCCn4ccnc4)n3n2)c1	5.91 (≈ 14.3 µM)	4.3 (≈ 10.4 µM)		
NCCCNc1cc(-c2ccccc2)nc2cc(-c3ccc(F)cc3)nn12	0.76 (≈ 2.1 µM)	0.554 (≈ 1.53 µM)		
Cc1cc(NCCN2CCCC2)n2nc(-c3cccc(F)c3)cc2n1	> 10	> 5		
C(=N\OCc1ccccc1)/c1ccccc1-c1ccccc1		> 5	> 50	
COc1ccccc1Oc1ncccc1/C(=N/O)NC1CCCC1			> 50	
CCCCCC(C)NCc1coc(-c2ccc3c(c2)OCO3)n1 (stereo unspecified)	10 (≈ 31.6 µM)	3.61 (≈ 11.4 µM)		
CCC(CC)Oc1ccc(-c2nc(CNCCCN(C)C)co2)cc1	> 10	> 5		

Compound	IC50 at 72 h [1] [µg/mL]	IC50 [2, 4] [µg/mL]	IC50 at 24 h [3] [µg/mL]	IC50 [2]
Cc1cc(NCC(C)(C)CN(C)C)n2nc(-c3cccc(F)c3)cc2n1	9.64 (≈ 27.1 µM)	> 5		
CCOc1ccccc1CN/C(=N\O)c1cccnc1Oc1ccccc1SC			> 50	
CCCCCC(C)NCc1coc(-c2cccc(OCCCC)c2)n1 (stereo unspecified)	1.7 (≈ 4.93 µM)	1.02 (≈ 2.96 µM)		
CO/N=C/c1ccc(OC)cc1		> 5	> 50	
CCCCCCC/C(O)=C1\C(=O)NC(CC(C)C)C1=O (stereo unspecified)	> 10	> 5		
Cc1cc(NCCN2CCOCC2)n2nc(-c3cccc(F)c3)cc2n1	> 10	> 5		
O=C1CCCN1CCCNc1cc(-c2ccccc2)nc2cc(-c3cccc(F)c3)nn12	> 10	> 5		
Cc1cc(NCCCN(C)C)n2nc(-c3cccc(F)c3)cc2n1	> 10	> 5		
C[N+]1(C)CCN(c2cc(-c3ccccc3)nc3cc(-c4ccc(F)cc4)nn23)CC1	> 10	> 5		
Cc1cc(NCCCN2CCCC2)n2nc(-c3cccc(F)c3)cc2n1	> 10	> 5		
CCCCCCC/C(O)=C1/C(=O)CN(C)C1=O	> 10	> 5		
CC(C)(C)COc1ncccc1/C(=N/O)N1CCCc2ccccc21			26 (≈ 76.6 µM)	
CCCCCC(C)NCc1coc(-c2ccc(OCCCC)c(OC)c2)n1 (stereo unspecified)	1.48 (≈ 3.95 µM)	0.38 (≈ 1.01 µM)		
COC(=O)c1sccc1NC(N)=O	> 10	> 5		
Cc1cc(NCCN2CCCCC2)n2nc(-c3cccc(F)c3)cc2n1	> 10	> 5		
Cc1ccc(/C(=N/O)NCC(C)(C)C)c(Oc2cc(Cl)ccc2Cl)n1			27 (≈ 70.6 µM)	
O=c1[nH]c(=O)c2sccc2[nH]1	> 10	> 5		
Clc1nc(Oc2cccc3ccccc23)c2sccc2n1	2.52 (≈ 8.06 µM)	> 5		
CN(C)CCCNc1cc(-c2ccccc2)nc2cc(-c3ccc(F)cc3)nn12	2.57 (≈ 6.6 µM)	1.1 (≈ 2.82 µM)		
O=c1cc(-c2ccccc2)[nH]c2cc(-c3cccc(F)c3)nn12	4.88 (≈ 16 µM)	> 5		
Brc1nn2ccnc2s1	> 10	> 5		
Fc1ccc(-c2cc3nc(-c4ccccc4)cc(NCCCN4CCOCC4)n3n2)cc1	> 10	> 5		
COc1ccc(C(=O)Cc2ccccc2)cc1		> 5	> 50	

Compound	IC50 at 72 h [1] [µg/mL]	IC50 [2, 4] [µg/mL]	IC50 at 24 h [3] [µg/mL]	IC50 [2]
Fc1ccc(-c2cc3nc(-c4ccccc4)cc(NCCCN4CCCC4)n3n2)cc1	6.92 (≈ 16.7 µM)	3.65 (≈ 8.78 µM)		
Fc1ccc(-c2cc3nc(-c4ccccc4)cc(NCCN4CCOCC4)n3n2)cc1	> 10	> 5		
CO/N=C/c1ccccc1-c1ccccc1		> 5	> 50	
COc1cccc(-c2nc(CNCCC3CCCN3C)c(C)o2)c1 (stereo unspecified)	> 10	2.2 (≈ 6.68 µM)		
CC1CCC(N/C(=N\O)c2cccnc2Oc2ccc(-n3cncn3)cc2)CC1 (stereo unspecified)			> 50	
CCN(CC)CCCNc1cc(-c2ccccc2)nc2cc(-c3cccc(F)c3)nn12	2.51 (≈ 6.01 µM)	1.05 (≈ 2.51 µM)		
Fc1ccc(-c2cc3nc(-c4ccccc4)cc(NCCN4CCCC4)n3n2)cc1	4.94 (≈ 12.3 µM)	1.68 (≈ 4.18 µM)		
CN(C)CCNc1cc(-c2ccccc2)nc2cc(-c3cccc(F)c3)nn12	1.78 (≈ 4.74 µM)	2.07 (≈ 5.51 µM)		
CCCCCC(C)NCc1nc(-c2ccc(C)cc2)oc1C (stereo unspecified)	> 10	1.41 (≈ 4.69 µM)		
CCCCCC(C)NCc1nc(-c2ccc(OC)cc2)oc1C (stereo unspecified)	> 10	1.49 (≈ 4.71 µM)		
Cc1cc(NCCCN2CCCC2=O)n2nc(-c3cccc(F)c3)cc2n1	> 10	> 5		
CCCCCC(C)NCc1coc(-c2ccc(OCc3ccc(Cl)c(Cl)c3)cc2)n1 (stereo unspecified)	1.9 (≈ 4.25 µM)	0.41 (≈ 0.916 µM)		
CC(C)(C)c1cc(=O)n2nc(-c3ccc(F)cc3)cc2[nH]1	> 10	> 5		
Cc1cc(N)nn1Cc1coc(-c2ccc(OC(F)(F)F)cc2)n1		1.18 (≈ 3.49 µM)	> 50	
CCCCNCc1coc(-c2ccc(C(C)(C)C)cc2)n1			28.1 (≈ 98.1 µM)	1.84 µg/mL and 0.87 µg/mL
CC(C)(C)OC(=O)N1CCN(c2cc(C(C)(C)C)nc3cc(-c4ccc(F)cc4)nn23)CC1	> 10	> 5		
COc1cc(C)ccc1Oc1nc(C)ccc1/C(=N/O)NCC(C)C			> 50	
CCCCc1ccc(-c2nc(CNCCCNC(=O)OC(C)(C)C)co2)cc1	1.47 (≈ 3.79 µM)	0.74 (≈ 1.91 µM)		
CCCCCC(C)NCc1coc(-c2ccc(OCCCC)c(C)c2)n1 (stereo unspecified)	1.37 (≈ 3.82 µM)	0.42 (≈ 1.17 µM)		
CCO/N=C/c1ccc(OC)cc1		> 5	> 50	
Fc1cccc(-c2cc3nc(-c4ccccc4)cc(NCCN4CCOCC4)n3n2)c1	> 10	> 5		
COc1ccc(-c2nc(CNCCCN(C)C)c(C)o2)cc1	> 10	3.13 (≈ 10.3 µM)		
COc1ccc(/C=N/OCc2ccccc2)cc1		> 5	> 50	

Compound	IC50 at 72 h [1] [µg/mL]	IC50 [2, 4] [µg/mL]	IC50 at 24 h [3] [µg/mL]	IC50 [2]
Cc1oc(-c2ccccc2F)nc1CNCCC1CCCN1C (stereo unspecified)	> 10	> 5		
Cc1cc(N2CCN(C(=O)OC(C)(C)C)CC2)n2nc(-c3cccc(F)c3)cc2n1	> 10	> 5		
Cc1ccc(Oc2ccc(/C(=N/O)NCC3CC3)cn2)c(C)c1			> 50	
Fc1cccc(-c2cc3nc(-c4ccccc4)cc(NCCN4CCCC4)n3n2)c1	1.54 (≈ 3.84 µM)	2.22 (≈ 5.53 µM)		
CN(C)CC(C)(C)CNc1cc(-c2ccccc2)nc2cc(-c3ccc(F)cc3)nn12	> 10	> 5		
COc1ccc(-c2cc3[nH]c(-c4ccccc4)cc(=O)n3n2)cc1	> 10	> 5		
Cc1ccc(/C(=N/O)NC2CCC(C)CC2)c(OCc2ccccn2)n1 (stereo unspecified)			> 50	
CC(C)(C)OC(=O)N1CCC(Nc2cc(-c3ccccc3)nc3cc(-c4ccc(F)cc4)nn23)C1 (stereo unspecified)	> 10	> 5		
CCCCCC(C)NCc1nc(-c2cccc(OC)c2)oc1C (stereo unspecified)	> 10	1.54 (≈ 4.87 µM)		
CCCCCC(C)NCc1nc(-c2cccc(C)c2)oc1C (stereo unspecified)	> 10	2.16 (≈ 7.19 µM)		
CN(C)CC(C)(C)CNc1cc(-c2ccccc2)nc2cc(-c3cccc(F)c3)nn12	> 10	> 5		
CN(C)CCCNCc1coc(-c2ccc(OCCc3ccccc3)cc2)n1	> 10	> 5		
CCCCCC(C)NCc1nc(-c2ccccc2F)oc1C (stereo unspecified)	8.59 (≈ 28.2 µM)	2.71 (≈ 8.9 µM)		
CC(C)c1ccc(-c2nc(CNCCCN(C)C)co2)cc1	> 10	> 5		
Fc1cccc(-c2cc3nc(-c4ccccc4)cc(NCCN4CCCCC4)n3n2)c1	9.91 (≈ 23.8 µM)	3.82 (≈ 9.19 µM)		
Cc1cc(Oc2ccc(/C(=N/O)NCC3CC3)cn2)cc(C(C)C)c1			27 (≈ 79.5 µM)	
COc1ccc(/C(Cc2ccccc2)=N/O)cc1		> 5	> 50	
Cc1cc(=O)n2nc(-c3cccc(F)c3)cc2[nH]1	> 10	> 5		
COc1ccc(-c2nc(CNCCC3CCCN3C)c(C)o2)cc1 (stereo unspecified)	> 10	2.44 (≈ 7.41 µM)		
NCCCNc1cc(-c2ccccc2)nc2cc(-c3cccc(F)c3)nn12	1.57 (≈ 4.34 µM)	0.535 (≈ 1.48 µM)		
Fc1ccc(-c2cc3nc(-c4ccccc4)cc(NCCN4CCCCC4)n3n2)cc1	> 10	> 5		
C/C(O)=C1\C(=O)NC(CC(C)C)C1=O (stereo unspecified)	> 10	> 5		
Cc1cc(NC2CCN(C(=O)OC(C)(C)C)C2)n2nc(-c3cccc(F)c3)cc2n1 (stereo unspecified)	> 10	> 5		
